Measurements as given in patent US11447500B2, “Thienopyridine derivatives and pharmaceutical composition comprising same” (WELLMARKER BIO CO., LTD., priority 2018, dated 2022).
Counter-ions that a name gives are not always drawn.

Assays:
RON kinase = target: T1, RON kinase (Homo sapiens, UniProt Q04912); test: RON kinase enzyme inhibitory activity, FRET (TR-FRET) technique; type: biochemical; details: 60 min reaction
T1 construct: purchased Carna Bioscience
Method: The enzyme inhibitory activity (IC50) of the thienopyridine derivative was measured using FRET (fluorescence resonance energy transfer) technique. RON kinase (Carna Bioscience) was diluted with a kinase assay buffer (50 mM HEPES pH 7.5, 1 mM EGTA, 10 mM MgCl2, 2 mM DTT, and 0.01% Tween-20) to a concentration of 2× (0.4 nM) the final reaction concentration and the dilution was added to a 384-well plate at 5 μL/well. As sample compounds, the compounds synthesized in the examples of the present invention and the compounds of the comparative examples were used. The sample compounds were respectively dissolved in 100% DMSO to obtain 1 mM stock solutions, which were then subjected to eight 10-fold serial dilutions. The sample compounds were diluted with the kinase assay buffer to a concentration of 4× the final reaction concentration, and the dilutions were added to the 384-well plate at 2.5 μL/well. The plate was incubated at room temperature for 15 minutes. Next, 0.25 M ATP solution (Sigma Aldrich) was diluted with the kinase reaction buffer to a concentration of 4× (60 μM) the final reaction concentration, and a tyrosine peptide substrate (Perkin-Elmer) was diluted therein to a concentration of 4× (400 nM) the final reaction concentration. The dilution was added to the 384-well plate at 2.5 μL/well. Then, the 384-well plate was incubated at room temperature and the reaction was allowed to proceed for 60 minutes. After 60 minutes, EDTA (Sigma Aldrich) was diluted with TR-FRET detection buffer (Perkin-Elmer) to a concentration of 4× (40 mM) the final reaction concentration. A europium-labeled anti-phosphotyrosine antibody (Perkin-Elmer) was diluted in the above EDTA dilution to a concentration of 4× (8 nM) the final reaction concentration to prepare a stop solution of the RON kinase reaction. The stop solution was added to the 384-well plate at 10 μL/well to terminate the reaction, and the plate was incubated at room temperature for 60 minutes. Thereafter, the plate was read on Victor X5 plate reader (Perkin-Elmer). At this time, the excitation wavelength was 340 nm and the emission wavelengths were 620 nm and 665 nm. The IC50 values of the sample compounds were determined using GraphPad Prism™ 5 by expressing the emission energy at 665 nm as a function of the sample compound concentration.

[1] = system: RON-activated KM12C colon cancer cell line; test: Cell killing efficacy, trypan blue exclusion assay, KM12C; type: cell-based; details: 48 hours
Method: (§1) Two colon cancer cell lines, RON-activated KM12C (80015, KCLB, MEM+10% FBS) and RON-mutated (Δ160) HT-29 (30038, KCLB, RPMI+10% FBS) were prepared in 6-well plates at 5×10^4 cells/well, respectively. After 24 hours, while freshly changing the medium, the sample compounds were added to the wells at a concentration of 1 μM or 5 μM and the plates were allowed to stand for 48 hours.
(§2) As the sample compounds, the compounds synthesized in the examples of the present invention and the compounds of the comparative examples were used.
(§3) After 48 hours, the cell suspensions were collected and centrifuged (1,500 rpm, 4 min.) to obtain the cells, and live cells and dead cells were quantitated (n=2) through a trypan blue (15250-061, Gibco) exclusion assay. The statistical analysis was performed using Excel™ T-test from Microsoft.
(§4) The cell death rates of the compounds of Examples and Comparative Examples were respectively measured and the results are shown in Table 4 as relative ratios to Comparative Example 1.

[2] = system: RON-mutated (Δ160) HT-29 colon cancer cell line; test: Cell killing efficacy, trypan blue exclusion assay, HT-29; type: cell-based; details: HT29 cell, 48 hours
Method: as §1, §2, §3, §4

KM12C cells = test: Cytotoxicity MTS assay, KM12C; type: cell-based; details: Homo sapiens, 72 hours
Method: (§5) In order to confirm the specific cytotoxicity of the drugs, the cultured cells were treated with 0.05% trypsin/EDTA (0.5% trypsin EDTA (10×), Product No.: 15400-054, GIBCO) to detach them from the culture dish, and 3,000 cells (KM12C) or 2,000 cells (HT29, Colo 320 HSR) were dispensed into each well.
(§6) After 24 hours, sample compounds were dissolved in DMSO (Product No.: D8418-250ML, SIGMA) to make 10 mM stock solutions. As the sample compounds, the compounds synthesized in the examples of the present invention and the compounds of the comparative examples were used.
(§7) The cells were treated with the sample compound dilutions, and cultured in a 5% CO2 incubator at 37° C. for 72 hours.
(§8) Thereafter, 20 μL of MTS solution (CellTiter™ 96 Aqueous One Solution Cell Proliferation Assay, Product No.: G3581, Promega) was dispensed into each well and mixed well, and the cells were incubated for 1 to 4 hours at 37° C. in a 5% CO2 incubator.

HT29 cells = test: Cytotoxicity MTS assay, HT29; type: cell-based; details: Homo sapiens, HT-29, 72 hours
Method: as §5, §6, §7, §8

T1 sequence (Q04912 25-1400): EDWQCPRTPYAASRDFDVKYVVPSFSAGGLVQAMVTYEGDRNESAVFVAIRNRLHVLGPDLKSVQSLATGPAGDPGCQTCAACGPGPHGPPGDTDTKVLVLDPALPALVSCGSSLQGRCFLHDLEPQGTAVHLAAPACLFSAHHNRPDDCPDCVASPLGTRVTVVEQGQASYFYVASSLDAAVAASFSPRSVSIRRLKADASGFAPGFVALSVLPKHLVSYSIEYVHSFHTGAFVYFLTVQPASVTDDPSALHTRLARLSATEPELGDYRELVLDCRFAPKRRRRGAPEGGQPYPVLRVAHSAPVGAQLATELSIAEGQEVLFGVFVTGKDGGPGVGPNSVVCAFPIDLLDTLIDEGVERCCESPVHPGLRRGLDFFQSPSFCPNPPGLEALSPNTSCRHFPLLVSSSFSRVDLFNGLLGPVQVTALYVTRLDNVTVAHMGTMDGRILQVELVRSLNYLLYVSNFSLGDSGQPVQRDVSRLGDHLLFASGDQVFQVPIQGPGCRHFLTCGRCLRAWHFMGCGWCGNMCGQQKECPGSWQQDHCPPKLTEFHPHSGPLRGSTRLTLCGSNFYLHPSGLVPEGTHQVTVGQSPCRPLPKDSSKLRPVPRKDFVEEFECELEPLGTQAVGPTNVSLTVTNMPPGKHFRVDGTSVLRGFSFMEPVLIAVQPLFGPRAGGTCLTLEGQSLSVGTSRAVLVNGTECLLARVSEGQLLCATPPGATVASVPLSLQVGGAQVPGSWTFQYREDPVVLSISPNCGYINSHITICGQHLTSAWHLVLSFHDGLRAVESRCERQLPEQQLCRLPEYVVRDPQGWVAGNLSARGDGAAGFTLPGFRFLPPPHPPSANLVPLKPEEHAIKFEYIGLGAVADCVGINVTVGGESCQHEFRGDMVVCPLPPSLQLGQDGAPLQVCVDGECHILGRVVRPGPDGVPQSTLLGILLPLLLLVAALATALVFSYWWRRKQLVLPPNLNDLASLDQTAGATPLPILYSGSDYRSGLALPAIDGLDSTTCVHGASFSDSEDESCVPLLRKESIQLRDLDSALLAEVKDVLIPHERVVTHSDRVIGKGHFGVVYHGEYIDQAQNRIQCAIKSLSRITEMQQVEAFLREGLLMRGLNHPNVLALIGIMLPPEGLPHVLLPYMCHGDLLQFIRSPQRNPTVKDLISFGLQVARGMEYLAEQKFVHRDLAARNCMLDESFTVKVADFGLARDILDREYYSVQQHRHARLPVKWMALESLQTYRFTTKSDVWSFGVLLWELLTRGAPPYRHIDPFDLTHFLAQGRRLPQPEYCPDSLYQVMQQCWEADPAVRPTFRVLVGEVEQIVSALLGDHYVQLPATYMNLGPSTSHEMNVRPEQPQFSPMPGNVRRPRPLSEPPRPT

Row | IC50 (RON kinase) [nM] | SMILES | Cell death rate (Relative to Comp. Ex. 1) ([1]; 1 μM) | Cell death rate (Relative to Comp. Ex. 1) ([1]; 5 μM) | Cell death rate (Relative to Comp. Ex. 1) ([2]; 1 μM) | Cell death rate (Relative to Comp. Ex. 1) ([2]; 5 μM) | IC50 (KM12C cells) [nM] | IC50 (HT29 cells) [nM]
1 | 0.08 | COCCNCc1ccc(-c2cc3nccc(Oc4ccc(NC(=O)c5c(OC)ccn(-c6ccc(F)cc6)c5=O)cc4Cl)c3s2)nc1.Cl [Example 9, N-(3-chloro-4-{[2-(5-{[(2-methoxyethyl)amino]methyl}pyridin-2-yl)thieno[3,2-b]pyridin-7-yl]oxy}phenyl)-1-(4-fluorophenyl)-4-methoxy-2-oxo-1,2-dihydropyridine-3-carboxamide Hydrochloride] | x 2.26 | x 2.87 | x 4.08 | x 3.53 | – | –
2 | 0.26 | COCCNCc1ccc(-c2cc3nccc(Oc4ccc(NC(=O)c5c(OC)ccn(-c6ccc(F)cc6)c5=O)cc4)c3s2)nc1.Cl [Example 11, 1-(4-fluorophenyl)-4-methoxy-N-(4-{[2-(5-{[(2-methoxyethyl)amino]methyl}pyridin-2-yl)thieno[3,2-b]pyridin-7-yl)oxy)phenyl)-2-oxo-1,2-dihydropyridine-3-carboxamide Hydrochloride] | x 0.99 | x 1.65 | x 1.16 | x 0.94 | – | –
3 | 0.77 | COCCNCc1ccc(-c2cc3nccc(Oc4ccc(NC(=O)c5c(C)cnn(-c6ccccc6)c5=O)cc4F)c3s2)nc1.Cl [Example 18, N-(3-fluoro-4-{[2-(5-{[(2-methoxyethyl)amino]methyl}pyridin-2-yl)thieno[3,2-b]pyridin-7-yl]oxy}phenyl)-5-methyl-3-oxo-2-phenyl-2,3-dihydropyridazine-4-carboxamide Hydrochloride] | x 0.56 | x 1.09 | x 1.33 | x 1.37 | – | –
4 | 0.23 | CCOc1ccn(-c2ccccc2)c(=O)c1C(=O)Nc1ccc(Oc2ccnc3cc(-c4ccc(CN5CCN(C)CC5)cn4)sc23)c(F)c1.Cl [Example 34, Hydrochloride] | – | – | – | – | 6 | 129

The remaining lines, values behind:

Row | SMILES | IC50 (RON kinase) [nM] | Cell death rate (Relative to Comp. Ex. 1) ([1]; 1 μM) | Cell death rate (Relative to Comp. Ex. 1) ([1]; 5 μM) | Cell death rate (Relative to Comp. Ex. 1) ([2]; 1 μM) | Cell death rate (Relative to Comp. Ex. 1) ([2]; 5 μM) | IC50 (KM12C cells) [nM] | IC50 (HT29 cells) [nM]
5 | CCOc1ccn(-c2ccc(F)cc2)c(=O)c1C(=O)Nc1ccc(Oc2ccnc(N)c2Cl)c(F)c1 [Comp. Ex. 1, N-{4-[(2-amino-3-chloro-4-pyridinyl)oxy]-3-fluorophenyl}-4-ethoxy-1-(4-fluorophenyl)-2-oxo-1,2-dihydro-3-pyridinecarboxamide, reference compound] | 1.11 | x 1.00 | x 1.00 | x 1.00 | x 1.00 | 511 | 10000 to 20000
6 | COc1ccc2c(Oc3ccc(NC(=O)c4c(C)n(CC(C)(C)O)n(-c5ccccc5)c4=O)cc3F)ccnc2c1 [Comp. Ex. 2, N-(3-fluoro-4-(7-methoxyquinolin-4-yloxy)phenyl)-1-(2-hydroxy-2-methylpropyl)-5-methyl-3-oxo-2-phenyl-2,3-dihydro-1H-pyrazole-4-carboxamide, reference compound] | 2.89 | x 0.38 | x 0.31 | x 0.59 | x 0.32 | – | –
7 | COCCNCc1ccc(-c2cc3nccc(Oc4ccc(NC(=O)c5c(OC)ccn(-c6ccc(F)cc6)c5=O)cc4F)c3s2)nc1.Cl [Example 2, N-(3-fluoro-4-{[2-(5-{[(2-methoxyethyl)amino]methyl}pyridin-2-yl)thieno[3,2-b]pyridin-7-yl]oxy}phenyl)-1-(4-fluorophenyl)-4-methoxy-2-oxo-1,2-dihydropyridine-3-carboxamide Hydrochloride] | 0.1 | x 1.33 | x 0.74 | x 0.62 | x 1.15 | – | –
8 | COCCNCc1ccc(-c2cc3nccc(Oc4ccc(NC(=O)c5c(OC)ccn(-c6ccccc6)c5=O)cc4F)c3s2)nc1.Cl [Example 3, N-(3-fluoro-4-{[2-(5-{[(2-methoxyethyl)amino]methyl}pyridin-2-yl)thieno[3,2-b]pyridin-7-yl]oxy}phenyl)-4-methoxy-2-oxo-1-phenyl-1,2-dihydropyridine-3-carboxamide Hydrochloride] | 0.42 | x 0.66 | x 1.26 | x 1.80 | x 2.22 | – | –
9 | COCCNCc1ccc(-c2cc3nccc(Oc4ccc(NC(=O)c5cccn(-c6ccc(F)cc6)c5=O)cc4F)c3s2)nc1.Cl [Example 4, N-(3-fluoro-4-{[2-(5-{[(2-methoxyethyl)amino]methyl}pyridin-2-yl)thieno[3,2-b]pyridin-7-yl]oxy}phenyl)-1-(4-fluorophenyl)-2-oxo-1,2-dihydropyridine-3-carboxamide Hydrochloride] | 0.68 | x 0.59 | x 0.80 | x 3.51 | x 3.63 | – | –
10 | CCOc1ccn(-c2ccc(F)cc2)c(=O)c1C(=O)Nc1ccc(Oc2ccnc3cc(-c4ccc(CNCCOC)cn4)sc23)c(F)c1.Cl [Example 7, 4-ethoxy-N-(3-fluoro-4-{[2-(5-{[(2-methoxyethyl)amino]methyl}pyridin-2-yl)thieno[3,2-b]pyridin-7-yl]oxy}phenyl)-1-(4-fluorophenyl)-2-oxo-1,2-dihydropyridine-3-carboxamide Hydrochloride] | 0.28 | x 2.38 | x 1.32 | x 2.97 | x 2.90 | – | –
11 | CCOc1ccn(-c2ccc(Cl)cc2)c(=O)c1C(=O)Nc1ccc(Oc2ccnc3cc(-c4ccc(CNCCOC)cn4)sc23)c(F)c1.Cl [Example 8, 1-(4-chlorophenyl)-4-ethoxy-N-(3-fluoro-4-{[2-(5-{[(2-methoxyethyl)amino]methyl}pyridin-2-yl)thieno[3,2-b]pyridin-7-yl]oxy}phenyl)-2-oxo-1,2-dihydropyridine-3-carboxamide Hydrochloride] | 0.01 | x 0.92 | x 1.19 | x 2.24 | x 2.52 | – | –
12 | CCOc1ccn(-c2ccc(F)cc2)c(=O)c1C(=O)Nc1ccc(Oc2ccnc3cc(-c4ccc(CN(C)CCOC)cn4)sc23)c(F)c1 [Example 30, 4-ethoxy-N-(3-fluoro-4-{[2-(5-{[(2-methoxyethyl)(methyl)amino]methyl}pyridin-2-yl)thieno[3,2-b]pyridin-7-yl]oxy}phenyl)-1-(4-fluorophenyl)-2-oxo-1,2-dihydropyridine-3-carboxamide Hydrochloride] | 0.88 | x 2.48 | x 2.06 | x 1.34 | x 1.07 | – | –
